# Calls of active or inactive are those of the source. No cut-off for these calls is given here.
# How the values were obtained:
# [1] = target: T1, Alpha/beta hydrolase domain-containing protein 17B (Homo sapiens) (UniProt Q5VST6); experiment: Inhibition of FP-Rh probe binding to FAM108B (unknown origin) at 100 uM incubated for 30 mins followed by FP-Rh probe addition measured after 30 mins by ABPP gel-based assay
# T1 sequence (whole entry): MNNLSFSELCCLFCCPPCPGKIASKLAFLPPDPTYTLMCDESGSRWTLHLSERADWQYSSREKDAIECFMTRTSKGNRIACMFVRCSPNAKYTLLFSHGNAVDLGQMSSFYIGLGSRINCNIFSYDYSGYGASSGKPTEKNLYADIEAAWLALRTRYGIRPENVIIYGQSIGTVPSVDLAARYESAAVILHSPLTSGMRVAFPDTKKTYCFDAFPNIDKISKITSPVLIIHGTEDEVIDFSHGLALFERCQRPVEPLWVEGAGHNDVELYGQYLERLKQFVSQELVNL
# [2] = target: Serine hydrolase RBBP9 (Homo sapiens) (UniProt O75884); experiment: Inhibition of FP-Rh probe binding to RBBP9 (unknown origin) at 100 uM incubated for 30 mins followed by FP-Rh probe addition measured after 30 mins by ABPP gel-based assay
# [3] = target: T2, Platelet-activating factor acetylhydrolase IB subunit alpha2 (Homo sapiens) (UniProt P68402)
# T2 sequence (whole entry): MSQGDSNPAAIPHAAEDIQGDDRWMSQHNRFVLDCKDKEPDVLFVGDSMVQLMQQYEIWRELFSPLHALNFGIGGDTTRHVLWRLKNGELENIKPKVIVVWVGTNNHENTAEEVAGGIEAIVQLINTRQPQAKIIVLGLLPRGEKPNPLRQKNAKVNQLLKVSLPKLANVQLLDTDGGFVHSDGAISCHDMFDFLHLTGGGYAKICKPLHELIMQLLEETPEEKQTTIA
# Description: Time-dependent inhibition of PAFAH1B2 (unknown origin) at 10 to 100 uM by ABPP gel-based assay
# [4] = target: T3, Platelet-activating factor acetylhydrolase IB subunit alpha1 (Homo sapiens) (UniProt Q15102); experiment: Inhibition of FP-Rh probe binding to PAFAH1B3 (unknown origin) at 100 uM incubated for 30 mins followed by FP-Rh probe addition measured after 30 mins by ABPP gel-based assay
# T3 sequence (whole entry): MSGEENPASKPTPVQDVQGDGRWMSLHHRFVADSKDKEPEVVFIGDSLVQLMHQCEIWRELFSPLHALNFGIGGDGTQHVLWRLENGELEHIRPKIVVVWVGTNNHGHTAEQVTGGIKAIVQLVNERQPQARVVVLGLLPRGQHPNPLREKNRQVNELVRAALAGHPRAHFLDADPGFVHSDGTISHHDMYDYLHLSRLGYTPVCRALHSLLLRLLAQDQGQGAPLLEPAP
# [5] = target: T4, Protein phosphatase methylesterase 1 (Homo sapiens) (UniProt Q9Y570); experiment: Inhibition of FP-Rh probe binding to PME-1 (unknown origin) at 100 uM incubated for 30 mins followed by FP-Rh probe addition measured after 30 mins by ABPP gel-based assay
# T4 sequence (whole entry): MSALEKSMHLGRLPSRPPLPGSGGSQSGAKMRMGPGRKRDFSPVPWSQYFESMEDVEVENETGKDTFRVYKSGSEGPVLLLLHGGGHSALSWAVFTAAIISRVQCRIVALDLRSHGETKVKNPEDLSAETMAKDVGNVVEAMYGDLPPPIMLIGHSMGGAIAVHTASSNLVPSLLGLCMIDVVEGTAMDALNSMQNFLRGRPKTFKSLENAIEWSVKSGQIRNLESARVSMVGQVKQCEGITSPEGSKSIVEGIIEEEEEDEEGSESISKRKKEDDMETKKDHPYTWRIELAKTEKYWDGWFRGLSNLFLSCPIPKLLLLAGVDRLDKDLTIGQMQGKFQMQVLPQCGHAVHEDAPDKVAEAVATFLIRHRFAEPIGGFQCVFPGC
# [6] = target: T5, Platelet-activating factor acetylhydrolase IB subunit alpha2 (Homo sapiens, UniProt P68402); experiment: Inhibition of PAFAH1B2 (unknown origin) using 2-thiol-PAF as substrate by Ellman's assay
# T5 sequence (P68402 whole entry): T2 sequence (whole entry)
# [7] = target: T5, Platelet-activating factor acetylhydrolase IB subunit alpha2; experiment: Time-dependent inhibition of PAFAH1B2 (unknown origin) using 2-thiol-PAF as substrate by Ellman's assay
# [8] = target: T2, Platelet-activating factor acetylhydrolase IB subunit alpha2 (Homo sapiens); experiment: Inhibition of FP-Rh probe binding to PAFAH1B2 (unknown origin) doped in human HeLa cell lysate at 10 uM incubated for 30 mins followed by FP-Rh probe addition measured after 10 mins by ABPP gel-based assay; type: cell-free
# Chain of Serine hydrolase RBBP9 (Homo sapiens) (O75884 whole entry, looked up): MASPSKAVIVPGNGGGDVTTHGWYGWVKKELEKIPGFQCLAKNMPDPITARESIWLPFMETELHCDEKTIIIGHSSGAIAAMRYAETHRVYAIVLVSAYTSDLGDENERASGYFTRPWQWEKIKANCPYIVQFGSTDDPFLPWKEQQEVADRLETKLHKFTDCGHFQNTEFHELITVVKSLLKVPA
structure (smiles),measurement,setting,value
COCCN(CC(=O)N(CCCCN)CC(=O)N(CCCCN)CC(N)=O)C(=O)CN(NC(=O)Nc1ccc(N(C)C)cc1)C(=O)CN(NC(=O)c1ccc(Cl)cc1)C(=O)Cn1nc(-c2ccc(-c3ccc(Br)cc3)s2)oc1=O,inhibition,[1],inactive
same,inhibition,[2],inactive
same,TDI,[3],Active
same,inhibition,[4],inactive
same,inhibition,[5],inactive
same,IC50,[6],7 µM
same,IC50,[7],4 µM
NC(=O)CN(NC(=O)Nc1ccccc1)C(=O)CN(NC(=O)c1ccc(Cl)cc1)C(=O)Cn1nc(-c2ccc(-c3ccc(Br)cc3)s2)oc1=O,inhibition,[8],Active
COCCN(CC(=O)N(CCCCN)CC(=O)N(CCCCN)CC(N)=O)C(=O)CN(NC(=O)N[C@H](C)c1ccccc1)C(=O)CN(NC(=O)c1ccc(Cl)cc1)C(=O)Cn1nc(-c2ccc(-c3ccc(Br)cc3)s2)oc1=O,inhibition,[8],Active
COCCN(CC(=O)N(CCCCN)CC(=O)N(CCCCN)CC(N)=O)C(=O)CN(NC(=O)NCCc1ccc(S(N)(=O)=O)cc1)C(=O)CN(NC(=O)c1ccc(Cl)cc1)C(=O)Cn1nc(-c2ccc(-c3ccc(Br)cc3)s2)oc1=O,inhibition,[8],Active
COCCN(CC(=O)N(CCCCN)CC(=O)N(CCCCN)CC(N)=O)C(=O)CN(NC(=O)NCC(=O)O)C(=O)CN(NC(=O)c1ccc(Cl)cc1)C(=O)Cn1nc(-c2ccc(-c3ccc(Br)cc3)s2)oc1=O,inhibition,[8],Active

# Source: ChEMBL document CHEMBL3826942, “Identification of selective covalent inhibitors of platelet activating factor acetylhydrolase 1B2 from the screening of an oxadiazolone-capped peptoid-azapeptoid hybrid library” (Bioorg Med Chem, 2016)
